Data published in patent publication US20230046078A1, “METHODS OF USING SUBSTITUTED FLAVONES FOR TREATING BONE DISORDERS” (EMORY UNIVERSITY, priority 2021, published 2023).
“Also recorded” adds a separate entry of the source.

Legend:
[1] = system: ovariectomized (OVX) WT and BDNF+/− mice; assay: H&E, TRAP staining and quantitative bone histomorphometry of distal femur in OVX WT and BDNF+/− mice treated with R13; assay type: in vivo
Procedure: (§1) Female C57BL6/J wild-type mice and BDNF+/−mice were obtained from Jackson Laboratory (MMRRC stock #000664 and 002267), then held and bred. The AEP knockout mice were generated on a mixed C57BL/6 and 129/Ola background. All in vivo experiments were carried out in female mice. All mice were kept under specific pathogen-free conditions in an environmentally controlled clean room and housed at 22° C. on a 12-h/12-h light/dark cycle. Food and water were provided ad lib. WT, BDNF+/−mice, AEP WT and AEP knockout mice were bilaterally ovariectomized or sham operated at 12 weeks of age. One week after ovariectomy, the WT and BDNF+/−mice received vehicle or R13 dissolved in 5% DMSO/0.5% methylcellulose at dose of 21.8 mg/kg/d, six days per week, for 8 weeks by gavage. In another group, 4 weeks after ovariectomy, WT mice were treated with IgG or anti-RANK-L monoclonal antibody (10 mg/kg, twice per week) by single subcutaneous injection for 4 weeks.
(§2) The measurements, indices and units for histomorphometric analysis were recommended by the Nomenclature Committee of the American Society of Bone and Mineral Research. Mice were injected with calcein (25 μg/g) subcutaneously at day 10 and day 3 before sacrifice. Bone histomorphometric analysis was performed at the University of Alabama at Birmingham Center for Metabolic Bone Disease-Histomorphometry and Molecular Analysis Core Laboratory. The Goldner's trichrome-stained plastic-embedded sections of calcein-double labeled femora of the mice were analyzed by an operator blinded as to the nature of the samples.
To further explore the roles of BDNF signaling in bone resorption and formation after OVX, hematoxylin and eosin (H&E) staining was conducted to analyze bone morphology and white edipocytes in both WT and BDNF+/−mice after OVX surgery. […] These observations were also validated by the single and double-labeled surface and inter-label thickness analysis (FIG. 7). […] Treatments with R13 inhibited N.Oc/BS in both WT and BDNF+/−mice after OVX.

WT mice = conditions: mouse, in vivo
[2] = system: ovariectomized (OVX) WT mice; assay: H&E, TRAP staining and histomorphometry of distal femur in OVX WT mice, R13 versus anti-RANK-L antibody; assay type: in vivo; conditions: WT mice after OVX
Procedure: as §1, §2
Representative data of double labeling of the trabecular bone in WT mice with OVX after R13 or anti-RANK-L antibody treatment are provided in FIG. 14, Panel C.

[3] = system: ovariectomized (OVX) WT and BDNF+/− mice; assay type: in vivo
[4] = system: ovariectomized (OVX) WT mice; assay: Serum markers in OVX WT mice, R13 versus anti-RANK-L antibody; assay type: in vivo
Procedure: as §1
Serum Osteocalcin (Novus Biologicals, Littleton, Colo., Cat. NBP2-68151), CTX (Immunodiagnostic systems, East Boldon, UK, Cat. AC-06F1), RANK-L and OPG (Abcam, Cat. ab269553 and ab203365) were measured by specific Elisa assays.
Given that R13 protects the bone by increase OPG, the RANK-L antibody was used as a comparator drug. Four weeks after ovariectomy, WT mice were treated with IgG or anti-RANK-L monoclonal antibody consecutively for 4 weeks.

[5] = system: ovariectomized (OVX) WT and BDNF+/− mice; assay type: in vivo; remark: listed apart in the source
AEP = AEP activity assay on MC3T3-E1 cell lysates; assay type: cell-based, Murine
Procedure: Cell lysates (10 μg) were incubated in 200 μl assay buffer (20 mM citric acid, 60 mM Na2HPO4, 1 mM EDTA, 0.1% CHAPS, and 1 mM DTT, pH 6.0) containing 20 μM δ-secretase substrate Z-Ala-Ala-Asn-AMC (Bachem, Bubendorf, Switzerland). AMC released by substrate cleavage was quantified by measuring at 460 nm in a fluorescence plate reader at 37° C. for 2 h in kinetic mode.

MC3T3-E1 cells [6] = assay type: cell-based, Murine
Procedure: Total RNA was isolated by TRIzol (Life Technologies, Carlsbad, Calif.). Reverse transcription was performed with SuperScript III reverse transcriptase (Life Technologies). Gene-specific primers and probes were designed and bought from Taqman (Life Technologies). All real-time PCR reactions were performed using the ABI 7500-Fast Real-Time PCR System and the Taqman Universal Master Mix Kit (Life Technologies). The relative quantification of gene expression was calculated using the ΔΔCt method. Predesigned real-time PCR primers from Applied Biosystems (Waltham, Mass.) were used for the analysis of Opg (Tnfrsf11b; Mm0043545_m1), RANK-L (Tnfsf11; Mm00441908_m1), AEP (Lgmn; Mm01325350_m1), GAPDH (Gapdh; Mm99999915_g1).

MC3T3-E1 cells [7] = assay: ELISA of OPG and RANK-L secreted into the medium of MC3T3 cells; assay type: cell-based, Murine
Source text: FIG. 9, Panel A contains representative images of ALP staining in […] cells treated with BDNF or 7,8-DHF combined with or without K252a for 14 days (n=3 independent experiments) (Scale bar, 5 mm (upper panel), 200 μm (lower panel)). […] FIG. 9, Panel C contains Western blots for MC3T3 cells cultured in complete medium or osteogenic induction medium (OIM) with BDNF or 7,8 DHF combined with or without K252a for 4 days. […] FIG. 9, Panel D contains graphs of the relative protein levels of C/EBPP, p-C/EBPβ, AEP, RANK-L, OPG, Osterix, p-TrkB/TrkB and p-Akt/AKT in MC3T3 cells cultured in the complete medium or OIM with BDNF or 7,8-DHF combined with or without K252a for four days. Data are shown as mean±SEM of three independent experiments, one-way ANOVA. Data are shown in each graph from left to right as 1) Control, 2) OIM+DMSO, 3) OIM+BDNF, 4) OIM+7,8-DHF, 5) OIM+BDNF+K252a, and 6) OIM+7,8-DHF+K252a. FIG. 9, Panel E contains graphs of an AEP enzymatic activity assay. BDNF and 7,8-DHF inhibit AEP activities, and K252a abolish BDNF and 7,8-DHF's effects. Data are shown as mean±SEM of 3 independent experiments, one-way ANOVA. Data are shown in each graph from left to right as 1) Control, 2) OIM+DMSO, 3) OIM+BDNF, 4) OIM+7,8-DHF, 5) OIM+BDNF+K252a, and 6) OIM+7,8-DHF+K252a. FIG. 9, Panel F contains graphs of qPCR results showing that OPG mRNA expression increases in MC3T3 cells after 7,8-DHF treatment for four days. Data are shown as mean±SEM of three independent experiments, one-way ANOVA. Data are shown in each graph from left to right as 1) Control, 2) OIM+DMSO, 3) OIM+BDNF, 4) OIM+7,8-DHF, 5) OIM+BDNF+K252a, and 6) OIM+7,8-DHF+K252a. FIG. 9, Panel G contains graphs showing that 7,8-DHF increases OPG and decreases the RANK-L/OPG ratio. Levels of OPG and RANK-L proteins secreted into the medium were measured by ELISA. Data are shown as mean±SEM of 3 independent experiments, one-way ANOVA. Data are shown in each graph from left to right as 1) Control, 2) OIM+DMSO, 3) OIM+BDNF, 4) OIM+7,8-DHF, 5) OIM+BDNF+K252a, and 6) OIM+7,8-DHF+K252a.

MC3T3-E1 cells [8] = assay type: cell-based, Murine; remark: listed apart in the source
[9] = among the groups regardless of the treatment
[10] = OVX mice, R13 21.8 mg/kg orally, eight weeks, vs vehicle control
[11] = […], R13 21.8 mg/kg orally, eight weeks, compared to OVX group
[12] = OVX WT and BDNF+/− mice upon R13 treatment

CNC(=O)Oc1ccc2c(=O)cc(-c3ccccc3)oc2c1OC(=O)NC [R13, 4-oxo-2-phenyl-4H-chromene-7,8-diyl bis(methylcarbamate)]
OVX-induced bone loss ([1]; R13 treatment): attenuated; also recorded: greatly blocks
OVX-induced osteoclast cells (TRAP staining) ([1]; WT and BDNF+/− mice): diminished
N.Oc/BS ([1]; WT and BDNF+/− mice after OVX): inhibited
adipocyte content in the bone (H&E staining) ([1]; after OVX, WT and BDNF+/− mice): decreased
trabecular bone tissue (H&E staining) ([1]; after OVX, WT and BDNF+/− mice): increased
bone formation rate (BFR) ([1]; after OVX, vehicle vs R13): vehicle-treated mice exhibited lower MAR and BFR as compared to R13-treated mice
mineral apposition rate (MAR) ([1]; after OVX, vehicle vs R13): vehicle-treated mice exhibited lower MAR and BFR as compared to R13-treated mice
MS/BS ratio [1, 9]: remained comparable
percentage of surfaces covered by OCs (Oc.S/BS) [1, 9]: remained comparable
N.Ob/BS ([1]; vehicle and R13-treated mice): no significant differences
ObS/BS ([1]; vehicle and R13-treated mice): no significant differences
BV/TV (WT mice): elevated
Conn.D. (WT mice): no significant difference
Ct.Ar (WT mice): no significant difference
Ct.Th (WT mice): no significant difference
SMI (WT mice): no significant difference
Tb.N (WT mice): no significant difference
Tb.Sp (WT mice): no significant difference
Tb.Th (WT mice): no significant difference
serum BDNF (WT mice): no significant difference
serum CTX (WT mice): no significant difference
serum OPG level (WT mice): significantly increased
serum RANK-L (WT mice): without affecting; also recorded: no significant difference
serum RANK-L/OPG ratio (WT mice): no significant difference
serum osteocalcin (WT mice): no significant difference
OVX-induced osteoclast cells (TRAP staining) [2]: diminished
trabecular bone marrow density (H&E staining) [2]: increased
white adipocyte contents in the bone (H&E staining) [2]: decreased
BFR/BS ([2]; distal femur trabecular bone): significantly increased
N.Oc/BS ([2]; distal femur trabecular bone): decreased
trabecular spacing (Tb.Sp) ([3]; OVX mice, both types, R13 21.8 mg/kg orally, eight weeks, vs OVX group): decreased
trabecular number (Tb.N) [3, 10]: higher
trabecular thickness (Tb.Th) [3, 10]: higher
connectivity density (Conn.D) [3, 11]: higher
structure model index (SMI) [3, 11]: lower
trabecular bone volume fraction (BV/TV) ([3]; […], R13 21.8 mg/kg orally, six days per week for eight weeks, compared to OVX group): higher
bone density ([3]; after OVX, overall conclusion): strongly increase
relative cortical bone area to tissue area (Ct.Ar/Tt.Ar) ([3]; among the groups, R13 21.8 mg/kg orally): remained unchanged
average cortical thickness (Ct.Th) ([3]; mouse, in vivo, po, 21.8 mg/kg): escalated
cortical bone cortical area (Ct.Ar) ([3]; mouse, in vivo, po, 21.8 mg/kg): escalated
serum OPG [4]: robustly elevated
serum RANK-L [4]: without altering
serum RANK-L/OPG ratio [4]: significant reduction
RANK-L/OPG ratio (serum) [5, 12]: significant reduction
serum OPG [5, 12]: substantially increased
serum CTX levels ([5]; R13-treated OVX mice compared to sham group): higher
serum osteocalcin ([5]; R13-treated OVX mice compared with vehicle-treated sham group): increased
serum BDNF levels ([5]; among the groups): remained equivalent

BDNF: Brain-derived neurotrophic factor, a neurotrophin; TrkB ligand
AEP protease activities (AEP; MC3T3 cells in OIM, substrate Z-Ala-Ala-Asn-AMC): greatly blocked; also recorded: inhibit
OPG mRNA levels (MC3T3-E1 cells [6]; OIM, four days): strong stimulatory effect
RANK-L mRNA (MC3T3-E1 cells [6]; OIM, four days): elevated
OPG protein secreted into the medium (MC3T3-E1 cells [7]; OIM, vs OIM alone): further augmented
RANK-L protein secreted into the medium (MC3T3-E1 cells [7]; OIM, vs OIM alone): further augmented
RANK-L/OPG ratio (ELISA) (MC3T3-E1 cells [7]; OIM, vs OIM alone): OIM alone were significantly higher than BDNF and 7,8-DHF
AEP expression (MC3T3-E1 cells [8]; OIM, 4 days): diminished
OPG protein (Western blot) (MC3T3-E1 cells [8]; OIM, 4 days): augmentation
RANK-L protein (Western blot) (MC3T3-E1 cells [8]; OIM, 4 days): augmentation

COC(=O)[C@@]1(O)C[C@H]2O[C@]1(C)n1c3ccccc3c3c4c(c5c6ccccc6n2c5c31)C(=O)NC4 [K252a]
BDNF and 7,8-DHF's effects on AEP activities under K252a (AEP; K252a 100 nM pretreatment): abolish
BDNF/7,8-DHF-elevated RANK-L mRNAs under K252a (MC3T3-E1 cells [6]; K252a 100 nM pretreatment): not affected
BDNF/7,8-DHF-promoted OPG mRNA levels under K252a (MC3T3-E1 cells [6]; K252a 100 nM pretreatment): abolished
RANK-L/OPG ratio in BDNF and 7,8-DHF groups under K252a (MC3T3-E1 cells [7]; K252a 100 nM pretreatment): highly augmented
effects triggered by BDNF or 7,8-DHF (Western blot) under K252a (MC3T3-E1 cells [8]; K252a 100 nM pretreatment): potently blunted
